The source of these data is paper PMC8256712, “Crystal structures of Aspergillus oryzae Rib2 deaminase: the functional mechanism involved in riboflavin biosynthesis” (IUCrJ, 2021).

Test [1] deals with T1, AoRib2 (Aspergillus oryzae, UniProt Q2UFA9).
T1 construct: gene rib2; full length, 222 residues; monomer
T1 sequence (Q2UFA9 1-222): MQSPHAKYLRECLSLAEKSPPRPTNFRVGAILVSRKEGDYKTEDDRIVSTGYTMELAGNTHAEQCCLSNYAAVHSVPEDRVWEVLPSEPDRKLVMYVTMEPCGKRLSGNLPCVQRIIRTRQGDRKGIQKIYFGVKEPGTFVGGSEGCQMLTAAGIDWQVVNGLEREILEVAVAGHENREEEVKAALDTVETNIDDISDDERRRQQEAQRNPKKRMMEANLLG
The test can be described thus: deaminase assay, fluorescence after diacetyl modification. It counts as biochemical. Conditions: 310 K, 30 min; DARIPP made enzymatically in situ from GTP.

Test [2] has as its target T2, AoRib2_188 (Aspergillus oryzae, UniProt Q2UFA9).
T2 construct: gene rib2; deaminase domain, residues 1-188 of 222, C-terminal segment deleted; Zn ligands His61, Cys102, Cys112, general base Glu63
T2 sequence (Q2UFA9 1-188): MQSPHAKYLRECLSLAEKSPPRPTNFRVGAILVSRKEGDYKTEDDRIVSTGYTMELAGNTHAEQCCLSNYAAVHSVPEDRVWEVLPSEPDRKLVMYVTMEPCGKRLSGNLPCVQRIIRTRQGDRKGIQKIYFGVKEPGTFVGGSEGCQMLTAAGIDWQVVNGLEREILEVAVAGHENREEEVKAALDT
The test is described as follows: X-ray crystal structure, soaked, […] A. It counts as binding. Conditions: crystals pH 6.5 (MES), soaked 20 min in 50-100 mM DARIPP; active site with Zn2+.

In the case of `Nc1nc(NC[C@H](O)[C@H](O)[C@H](O)COP(=O)(O)O)c(N)c(=O)[nH]1` [DARIPP, 2,5-diamino-6-ribitylamino-4(3H)-pyrimidinone 5′-phosphate], the “deaminase assay, fluorescence after diacetyl modification” value in test [1] was “the recombinant protein is able to catalyze the conversion of DARIPP to ARIPP”. In test [2], the “X-ray crystal structure, soaked, 1.58 A” value was “DARIPP could be built nicely into strong electron density and is firmly embedded in the active site”.
